From patent US20100121108A1, “PROCESS FOR SYNTHESIZING DESVENLAFAXINE FREE BASE AND SALTS OR SOLVATES THEREOF” (MEDICHEM, S.A., priority 2006, published 2010)

Key:
[1] = Particle size by Malvern Mastersizer S (volume distribution); assay type: physicochemical
Protocol: The particle size for desvenlafaxine succinate was measured using a Malvern Mastersizer S particle size analyzer with an MS1 Small Volume Sample Dispersion Unit stirred cell. A 300RF mm lens and a beam length of 2.4 mm were used. Samples for analysis were prepared by dispersing a weighed amount of desvenlafaxine succinate (approximately 0.1 g) in 20 mL of Lecithin Solution, previously prepared by dilution of 1.5 g of Soybean Lecithin to 200 mL of Isopar G. Mix gently until Lecithin dissolves (Lecithin solution). If it is necessary the solution can be sonicated. The suspension was delivered drop-wise to a background corrected measuring cell previously filled with dispersant (Isopar G) until the obscuration reached the desired level. Volume distributions were obtained for three times. Before and after the analysis, purge the sample and flush the MS1 unit with ethanol twice and with the dispersant at least three times. For characterization, the values of D10, D50 and D90 (by volume) were specifically listed, each one being the mean of the […] values available for each characterization parameter.

[2] = BET specific surface area (Micromeritics ASAP2010, N2 adsorption); assay type: physicochemical; details: N2 at 77.3 K
Protocol: The BET (Brunauer, Emmett and Teller) specific surface area for desvenlafaxine succinate was measured using a Micromeritics ASAP2010 equipment. Samples for analysis were degassed at 30° C.-70° C. under vacuum for about two hours. The determination of the adsorption of N2 at 77.3° K was measured for relative pressures in the range of 0.05-0.3 for a weighed amount of desvenlafaxine succinate (i.e., approximately 0.5 g).

[3] = milled and sieved desvenlafaxine succinate

CN(C)CC(c1ccc(O)cc1)C1(O)CCCCC1 (centres unmarked) [desvenlafaxine succinate]
D50 (v) particle size [1, 3]: approximately 41 μm
D90 (v) particle size [1, 3]: approximately 155 μm
D10 (v) particle diameter less than ([1]; summary statement): approximately 4 μM
surface area [2]: 0.8457±0.0039 m^2/g
surface area ([2]; listed as Desvenlafaxine succinate): approximately 0.8457±0.0039 m^2/g
